Numbers after ± are expanded uncertainties.
Experiment: xn = mol fraction of the nth substance listed
Conditions: 101 kPa, Liquid, Vibrating tube method

Structure (SMILES): NCCN [ethane-1,2-diamine] + O
- mass density (274.15 K, x1 = 0.002): 999.81 ± 0.5 kg/m3
- mass density (274.15 K, x1 = 0.0033): 999.71 ± 0.5 kg/m3
- mass density (274.15 K, x1 = 0.0047): 999.62 ± 0.5 kg/m3
- mass density (274.15 K, x1 = 0.0072): 999.47 ± 0.5 kg/m3
- mass density (274.15 K, x1 = 0.009): 999.38 ± 0.5 kg/m3
- mass density (274.15 K, x1 = 0.0123): 999.18 ± 0.5 kg/m3
- mass density (274.15 K, x1 = 0.0222): 998.88 ± 0.5 kg/m3
- mass density (274.15 K, x1 = 0.0436): 999.22 ± 0.5 kg/m3
- mass density (274.15 K, x1 = 0.0609): 1000.11 ± 0.5 kg/m3
- mass density (274.15 K, x1 = 0.0827): 1002.02 ± 0.5 kg/m3
- mass density (275.15 K, x1 = 0.002): 999.85 ± 0.5 kg/m3
- mass density (275.15 K, x1 = 0.0033): 999.74 ± 0.5 kg/m3
- mass density (275.15 K, x1 = 0.0047): 999.65 ± 0.5 kg/m3
- mass density (275.15 K, x1 = 0.0072): 999.48 ± 0.5 kg/m3
- mass density (275.15 K, x1 = 0.009): 999.37 ± 0.5 kg/m3
- mass density (275.15 K, x1 = 0.0123): 999.18 ± 0.5 kg/m3
- mass density (275.15 K, x1 = 0.0222): 998.82 ± 0.5 kg/m3
- mass density (275.15 K, x1 = 0.0436): 999.08 ± 0.5 kg/m3
- mass density (275.15 K, x1 = 0.0609): 999.93 ± 0.5 kg/m3
- mass density (275.15 K, x1 = 0.0827): 1001.75 ± 0.5 kg/m3
- mass density (276.15 K, x1 = 0.002): 999.87 ± 0.5 kg/m3
- mass density (276.15 K, x1 = 0.0033): 999.75 ± 0.5 kg/m3
- mass density (276.15 K, x1 = 0.0047): 999.66 ± 0.51 kg/m3
- mass density (276.15 K, x1 = 0.0072): 999.48 ± 0.5 kg/m3
- mass density (276.15 K, x1 = 0.009): 999.37 ± 0.5 kg/m3
- mass density (276.15 K, x1 = 0.0123): 999.16 ± 0.5 kg/m3
- mass density (276.15 K, x1 = 0.0222): 998.79 ± 0.5 kg/m3
- mass density (276.15 K, x1 = 0.0436): 998.93 ± 0.5 kg/m3
- mass density (276.15 K, x1 = 0.0609): 999.69 ± 0.5 kg/m3
- mass density (276.15 K, x1 = 0.0827): 1001.43 ± 0.5 kg/m3
- mass density (277.15 K, x1 = 0.002): 999.87 ± 0.5 kg/m3
- mass density (277.15 K, x1 = 0.0033): 999.75 ± 0.5 kg/m3
- mass density (277.15 K, x1 = 0.0047): 999.65 ± 0.5 kg/m3
- mass density (277.15 K, x1 = 0.0072): 999.47 ± 0.5 kg/m3
- mass density (277.15 K, x1 = 0.009): 999.35 ± 0.5 kg/m3
- mass density (277.15 K, x1 = 0.0123): 999.12 ± 0.5 kg/m3
- mass density (277.15 K, x1 = 0.0222): 998.71 ± 0.5 kg/m3
- mass density (277.15 K, x1 = 0.0436): 998.76 ± 0.5 kg/m3
- mass density (277.15 K, x1 = 0.0609): 999.54 ± 0.5 kg/m3
- mass density (277.15 K, x1 = 0.0827): 1001.13 ± 0.5 kg/m3
- mass density (278.15 K, x1 = 0.002): 999.85 ± 0.5 kg/m3
- mass density (278.15 K, x1 = 0.0033): 999.73 ± 0.5 kg/m3
- mass density (278.15 K, x1 = 0.0047): 999.62 ± 0.5 kg/m3
- mass density (278.15 K, x1 = 0.0072): 999.43 ± 0.5 kg/m3
- mass density (278.15 K, x1 = 0.009): 999.3 ± 0.5 kg/m3
- mass density (278.15 K, x1 = 0.0123): 999.07 ± 0.5 kg/m3
- mass density (278.15 K, x1 = 0.0222): 998.62 ± 0.5 kg/m3
- mass density (278.15 K, x1 = 0.0436): 998.59 ± 0.5 kg/m3
- mass density (278.15 K, x1 = 0.0609): 999.31 ± 0.5 kg/m3
- mass density (278.15 K, x1 = 0.0827): 1000.79 ± 0.5 kg/m3
- mass density (278.15 K, x1 = 0.106): 1002.72 ± 0.5 kg/m3
- mass density (278.15 K, x1 = 0.1481): 1006.44 ± 0.5 kg/m3
- mass density (278.15 K, x1 = 0.2063): 1009.32 ± 0.5 kg/m3
- mass density (278.15 K, x1 = 0.2513): 1008.93 ± 0.5 kg/m3
- mass density (278.15 K, x1 = 0.3148): 1002.73 ± 0.5 kg/m3
- mass density (278.15 K, x1 = 0.3258): 1002.11 ± 0.5 kg/m3
- mass density (278.15 K, x1 = 0.3316): 1001.85 ± 0.5 kg/m3
- mass density (278.15 K, x1 = 0.341): 1001.4 ± 0.5 kg/m3
- mass density (278.15 K, x1 = 0.4038): 992.34 ± 0.51 kg/m3
- mass density (278.15 K, x1 = 0.4489): 985.23 ± 0.51 kg/m3
- mass density (278.15 K, x1 = 0.4928): 977.8 ± 0.51 kg/m3
- mass density (278.15 K, x1 = 0.5468): 968.88 ± 0.51 kg/m3
- mass density (278.15 K, x1 = 0.5907): 961.76 ± 0.51 kg/m3
- mass density (278.15 K, x1 = 0.6361): 954.59 ± 0.51 kg/m3
- mass density (278.15 K, x1 = 0.6843): 947.87 ± 0.51 kg/m3
- mass density (278.15 K, x1 = 0.7386): 940.37 ± 0.51 kg/m3
- mass density (278.15 K, x1 = 0.7954): 933.17 ± 0.51 kg/m3
- mass density (278.15 K, x1 = 0.81): 931.24 ± 0.51 kg/m3
- mass density (278.15 K, x1 = 0.8505): 926.49 ± 0.51 kg/m3
- mass density (278.15 K, x1 = 0.898): 921.18 ± 0.51 kg/m3
- mass density (278.15 K, x1 = 0.9282): 917.97 ± 0.51 kg/m3
- mass density (278.15 K, x1 = 0.9584): 914.9 ± 0.51 kg/m3
- mass density (278.15 K, x1 = 0.9678): 913.98 ± 0.51 kg/m3
- mass density (279.15 K, x1 = 0.002): 999.82 ± 0.5 kg/m3
- mass density (279.15 K, x1 = 0.0033): 999.7 ± 0.5 kg/m3
- mass density (279.15 K, x1 = 0.0047): 999.59 ± 0.5 kg/m3
- mass density (279.15 K, x1 = 0.0072): 999.38 ± 0.5 kg/m3
- mass density (279.15 K, x1 = 0.009): 999.26 ± 0.5 kg/m3
- mass density (279.15 K, x1 = 0.0123): 999.01 ± 0.5 kg/m3
- mass density (279.15 K, x1 = 0.0222): 998.54 ± 0.5 kg/m3
- mass density (279.15 K, x1 = 0.0436): 998.41 ± 0.5 kg/m3
- mass density (279.15 K, x1 = 0.0609): 999.05 ± 0.5 kg/m3
- mass density (279.15 K, x1 = 0.0827): 1000.47 ± 0.5 kg/m3
- mass density (280.15 K, x1 = 0.002): 999.78 ± 0.5 kg/m3
- mass density (280.15 K, x1 = 0.0033): 999.65 ± 0.5 kg/m3
- mass density (280.15 K, x1 = 0.0047): 999.54 ± 0.5 kg/m3
- mass density (280.15 K, x1 = 0.0072): 999.33 ± 0.5 kg/m3
- mass density (280.15 K, x1 = 0.009): 999.2 ± 0.5 kg/m3
- mass density (280.15 K, x1 = 0.0123): 998.93 ± 0.5 kg/m3
- mass density (280.15 K, x1 = 0.0222): 998.41 ± 0.5 kg/m3
- mass density (280.15 K, x1 = 0.0436): 998.21 ± 0.5 kg/m3
- mass density (280.15 K, x1 = 0.0609): 998.8 ± 0.5 kg/m3
- mass density (280.15 K, x1 = 0.0827): 1000.14 ± 0.5 kg/m3
- mass density (281.15 K, x1 = 0.002): 999.72 ± 0.5 kg/m3
- mass density (281.15 K, x1 = 0.0033): 999.59 ± 0.5 kg/m3
- mass density (281.15 K, x1 = 0.0047): 999.47 ± 0.5 kg/m3
- mass density (281.15 K, x1 = 0.0072): 999.25 ± 0.5 kg/m3
- mass density (281.15 K, x1 = 0.009): 999.12 ± 0.5 kg/m3
- mass density (281.15 K, x1 = 0.0123): 998.84 ± 0.5 kg/m3
- mass density (281.15 K, x1 = 0.0222): 998.29 ± 0.5 kg/m3
- mass density (281.15 K, x1 = 0.0436): 998.03 ± 0.5 kg/m3
- mass density (281.15 K, x1 = 0.0609): 998.53 ± 0.5 kg/m3
- mass density (281.15 K, x1 = 0.0827): 999.78 ± 0.5 kg/m3
- mass density (282.15 K, x1 = 0.002): 999.65 ± 0.5 kg/m3
- mass density (282.15 K, x1 = 0.0033): 999.52 ± 0.5 kg/m3
- mass density (282.15 K, x1 = 0.0047): 999.39 ± 0.5 kg/m3
- mass density (282.15 K, x1 = 0.0072): 999.17 ± 0.5 kg/m3
- mass density (282.15 K, x1 = 0.009): 999.04 ± 0.5 kg/m3
- mass density (282.15 K, x1 = 0.0123): 998.74 ± 0.5 kg/m3
- mass density (282.15 K, x1 = 0.0222): 998.17 ± 0.5 kg/m3
- mass density (282.15 K, x1 = 0.0436): 997.81 ± 0.5 kg/m3
- mass density (282.15 K, x1 = 0.0609): 998.25 ± 0.5 kg/m3
- mass density (282.15 K, x1 = 0.0827): 999.43 ± 0.5 kg/m3
- mass density (283.15 K, x1 = 0.002): 999.56 ± 0.5 kg/m3
- mass density (283.15 K, x1 = 0.0033): 999.43 ± 0.5 kg/m3
- mass density (283.15 K, x1 = 0.0047): 999.3 ± 0.5 kg/m3
- mass density (283.15 K, x1 = 0.0072): 999.07 ± 0.5 kg/m3
- mass density (283.15 K, x1 = 0.009): 998.92 ± 0.5 kg/m3
- mass density (283.15 K, x1 = 0.0123): 998.62 ± 0.5 kg/m3
- mass density (283.15 K, x1 = 0.0222): 998.01 ± 0.5 kg/m3
- mass density (283.15 K, x1 = 0.0436): 997.6 ± 0.5 kg/m3
- mass density (283.15 K, x1 = 0.0609): 997.98 ± 0.5 kg/m3
- mass density (283.15 K, x1 = 0.0827): 999.09 ± 0.5 kg/m3
- mass density (288.15 K, x1 = 0.002): 998.94 ± 0.5 kg/m3
- mass density (288.15 K, x1 = 0.0033): 998.79 ± 0.5 kg/m3
- mass density (288.15 K, x1 = 0.0047): 998.64 ± 0.5 kg/m3
- mass density (288.15 K, x1 = 0.0072): 998.38 ± 0.5 kg/m3
- mass density (288.15 K, x1 = 0.009): 998.21 ± 0.5 kg/m3
- mass density (288.15 K, x1 = 0.0123): 997.87 ± 0.5 kg/m3
- mass density (288.15 K, x1 = 0.0222): 997.12 ± 0.5 kg/m3
- mass density (288.15 K, x1 = 0.0436): 996.36 ± 0.5 kg/m3
- mass density (288.15 K, x1 = 0.0609): 996.47 ± 0.5 kg/m3
- mass density (288.15 K, x1 = 0.0827): 997.2 ± 0.5 kg/m3
- mass density (288.15 K, x1 = 0.106): 998.37 ± 0.5 kg/m3
- mass density (288.15 K, x1 = 0.1481): 1000.83 ± 0.5 kg/m3
- mass density (288.15 K, x1 = 0.2063): 1002.48 ± 0.5 kg/m3
- mass density (288.15 K, x1 = 0.2513): 1001.08 ± 0.5 kg/m3
- mass density (288.15 K, x1 = 0.3148): 995 ± 0.5 kg/m3
- mass density (288.15 K, x1 = 0.3316): 993.72 ± 0.5 kg/m3
- mass density (288.15 K, x1 = 0.341): 992.78 ± 0.5 kg/m3
- mass density (288.15 K, x1 = 0.4038): 983.69 ± 0.51 kg/m3
- mass density (288.15 K, x1 = 0.4489): 976.15 ± 0.51 kg/m3
- mass density (288.15 K, x1 = 0.4928): 968.71 ± 0.51 kg/m3
- mass density (288.15 K, x1 = 0.5468): 959.92 ± 0.51 kg/m3
- mass density (288.15 K, x1 = 0.5907): 952.42 ± 0.51 kg/m3

From the NIST ThermoML archive (doi:10.1016/j.tca.2016.06.022)
